Measured values published in paper PMC4867616, “Imaging of Cerebral Amyloid Angiopathy with Bivalent ^99mTc-Hydroxamamide Complexes” (Scientific Reports, 2016).

Molecular target: T1, Aβ depositions in human CAA brain sections (Homo sapiens, UniProt P05067)
T1 construct: consistent with the immunohistochemical staining pattern observed in the same brain sections with anti-Aβ(1–40) antibody; from tissue; host or cells: post-mortem human brain, autopsy-confirmed CAA cases
Test: In vitro autoradiography of human CAA brain sections
Type: binding
Conditions: for Labeling of Aβ depositions in brain sections from another patient with CAA: patient with CAA (person)
Method: (§1) Six micrometer thick serial human brain sections of paraffin-embedded blocks were used for autoradiography. To completely deparaffinize the sections, they were incubated in xylene for 30 min two times and in 100% EtOH for 1 min two times. Subsequently, they were subjected to 1-min incubation in 90% EtOH and 1-min incubation in 70% EtOH, followed by a 5-min wash in water. Each slide was incubated with a 50% EtOH solution of [^99mTc]SB2A or [^99mTc]BT2B (370 kBq/mL) at room temperature for 1 h. […] The sections were washed in 50% EtOH for 3 min two times and exposed to a BAS imaging plate (Fuji Film, Tokyo, Japan) for 2 h. Autoradiographic images were obtained using a BAS5000 scanner system (Fuji Film). After autoradiographic examination, the same sections were immunostained by an antibody against Aβ(1–40) to confirm the presence of Aβ depositions. For immunohistochemical staining of Aβ(1–40), the sections were autoclaved for 15 min in 0.01 M citric acid buffer (pH 6.0) to activate the antigen. After three 5-min incubations in PBS-Tween 20 (PBST), they were incubated with anti-Aβ(1–40) primary antibody (BA27; Wako, Osaka, Japan) at room temperature overnight. Subsequently, they were incubated in PBST for 5 min three times, and incubated with biotinylated goat anti-mouse IgG (Wako) at room temperature for 3 h. After three 5-min incubations in PBST, the sections were incubated with Streptavidin-Peroxidase complex at room temperature for 30 min. After three 5-min incubations in PBST, they were incubated with diaminobenzidine (Merck, Hesse, Germany) as a chromogen for 5 min. After washing with water, the sections were observed under a microscope (BIOREVO BZ-9000; Keyence Corp., Osaka, Japan).
as §1, with “In vitro autoradiography of human CAA brain sections. Postmortem brain tissues from autopsy-confirmed cases of CAA (person, and person) and a control (person) were obtained from the Graduate School of Medicine, Kyoto University, National Cerebral and Cardiovascular Center, and BioChain Institute Inc. (California, USA), respectively. Experiments were performed according to the regulations of the ethics committee of Kyoto University. Six” for “Six”, “serial” for “serial human brain”, “Aβ(1-40)” for “Aβ(1–40)”, “Aβ(1-40),” for “Aβ(1–40),”, “anti-Aβ(1-40)” for “anti-Aβ(1–40)”, “After three 5-min incubations in PBST, the sections were incubated with Streptavidin-Peroxidase complex at room temperature for 30 min. After three 5-min incubations in PBST, they were incubated with diaminobenzidine (Merck, Hesse, Germany) as a chromogen for 5 min. After washing with water, the sections were observed under a microscope (BIOREVO BZ-9000; Keyence Corp., Osaka, Japan).” left out

T1 sequence (P05067 672-711 limits assumed): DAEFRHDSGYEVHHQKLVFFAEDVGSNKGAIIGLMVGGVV

Row | SMILES | Blocking of labeling of Aβ depositions with excess nonradioactive PIB (adjacent CAA brain section, PIB 1.0 mM) | Accumulation of radioactivity in control brain sections (autoradiography) (brain section from a healthy control (person)) | Labeling of Aβ depositions in CAA brain sections (autoradiography) (brain section from a patient with CAA (person), 370 kBq/mL, 1 h) | Labeling of Aβ depositions in brain sections from another patient with CAA
1 | CN(C)c1ccc(/C=C/c2ccc(C3=N[O][99Tc-]4(=[O])([NH]3)[NH2+]C(c3ccc(/C=C/c5ccc(N(C)C)cc5)cc3)=N[O]4)cc2)cc1 (single isomer, unassigned) [[^99mTc]SB2A] | blocked to a large extent | almost no accumulation of radioactivity | intensively labeled Aβ depositions | intensively labeled Aβ depositions
2 | CN(C)c1ccc(-c2nc3ccc(C4=N[O][99Tc-]5(=[O])([NH]4)[NH2+]C(c4ccc6nc(-c7ccc(N(C)C)cc7)sc6c4)=N[O]5)cc3s2)cc1 [[^99mTc]BT2B] |  |  |  | intensively labeled Aβ depositions
